Molecules are shown by their SMILES.

The test deals with T1, FAAH (Mus musculus, UniProt O08914).
T1 construct: Whole brain tissue from these mice was collected; from tissue; host or cells: CD-1 mouse whole brain membrane homogenate
T1 sequence (O08914 1-579): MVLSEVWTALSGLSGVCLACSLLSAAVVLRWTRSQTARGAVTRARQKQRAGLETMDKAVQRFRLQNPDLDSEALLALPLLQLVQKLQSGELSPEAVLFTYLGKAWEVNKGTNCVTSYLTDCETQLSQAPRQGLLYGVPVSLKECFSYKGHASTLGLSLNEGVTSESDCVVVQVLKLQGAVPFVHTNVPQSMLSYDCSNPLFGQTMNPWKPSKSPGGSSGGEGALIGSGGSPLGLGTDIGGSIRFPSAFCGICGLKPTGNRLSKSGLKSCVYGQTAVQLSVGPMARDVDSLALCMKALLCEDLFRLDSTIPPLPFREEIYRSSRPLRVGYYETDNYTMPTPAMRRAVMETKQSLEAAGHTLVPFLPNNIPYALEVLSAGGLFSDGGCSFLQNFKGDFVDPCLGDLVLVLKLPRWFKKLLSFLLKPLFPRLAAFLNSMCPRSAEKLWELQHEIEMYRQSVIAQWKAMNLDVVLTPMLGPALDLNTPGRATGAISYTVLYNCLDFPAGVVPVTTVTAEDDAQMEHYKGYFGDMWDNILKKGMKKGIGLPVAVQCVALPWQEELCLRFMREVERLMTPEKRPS
The experiment in a line: FAAH inhibition, mouse brain membrane homogenate assay. It counts as biochemical. Conditions: average; FAAH extracted from mouse brain homogenate; read-out: Mouse Brain FAAH Extract IC50. The procedure: Adult rats (Charles River CD strain, female, 200 g) were anaesthetized with isofluorane and rapidly decapitated. Each brain was quickly removed and chilled in tubes (3 brains per tube) on ice. About 25 mL of “homogenization buffer” (20 mM HEPES buffer, pH 7.0, with 1 mM MgCl2) was added to 15 to 20 g of brain. The brains were homogenized on ice for 1 minute using an Omni GLH homogenizer (Omni International, Marietta, Ga.). The homogenates were then transferred to three centrifuge tubes and centrifuged at 36,500 g for 20 minutes at 4° C. The supernatant was discarded and each pellet was re-suspended in 25 mL homogenization buffer. The re-suspended material was again centrifuged (36,500 g, 20 minutes at 4° C.). Pellets were combined by resuspension in 10 mL of homogenization buffer and incubated in a 37° C. water bath for 15 minutes. The tubes were then placed on ice for 5 minutes followed by centrifugation at 36,500 g for 20 minutes at 4° C. The supernatant was discarded and the membrane pellets were then re-suspended in 40 mL of “resuspension buffer” (50 mM Tris-HCl buffer, pH 7.4, containing 1 mM EDTA and 3 mM MgCl2). A Bradford Protein assay was performed to determine protein concentration. The protein was aliquotted into screw cap Cryo tubes each containing ˜400 μL, flash frozen in liquid nitrogen and stored at −80° C. until used for the assay. A similar protocol was used to obtain brain membrane homogenates from mice.
Eighteen 10 to 12 week old female CD-1 mice housed at the animal care facility of Ironwood Pharmaceuticals were anesthetized by isoflurane anesthesia and rapidly decapitated using a small decapitator (Harvard Apparatus part #PY8 SS-0012, Holliston, Mass.). Whole brain tissue from these mice was collected (approximately 9.4 g total) and placed on aluminum foil sitting on dry ice to flash freeze the tissue. Tissue was thawed and used to prepare microsomes as described above for rat brain homogenates.
FAAH activity was assayed in the respective homogenates described herein (Rat brain, Mouse brain or Human brain) for certain exemplary substrate compounds using a modification of the method of Omeir et al. (1995 Life Sci 56:1999) and Fowler et al. (1997 J. Pharmacol Exp Ther 283:729). For assay of FAAH activity in rat brain membrane (RBM) homogenates, RBM homogenates (7 μg protein in 20 μL final volume of 10 mM Tris pH 6.5) were mixed with 180 μL of a mixture of the following: 2.0 μM unlabelled anandamide, 0.03 μCi radio labeled anandamide [ethanolamine 1-^3H] (40-60 Cis/mmol, product number ART-626, American Radiolabeled Chemicals, St. Louis, Mo.), 1 mg/mL Bovine Serum Albumin (fatty acid-free BSA, electrophoresis grade, Sigma, St. Louis, Mo.), 10 mM Tris-HCl (pH 6.5), and 1 mM EDTA in the presence and absence of test compounds (vehicle was DMSO at a final concentration of 1%) and incubated for 10 minutes at 37° C. Samples were placed on ice to terminate the reactions.
^3H-ethanolamine product and un-reacted ^3H-anandamide substrate were then separated either: (1) by using chloroform/methanol extraction or (2) by passing the reaction mixture through a glass fiber filter containing activated charcoal. Samples were extracted with chloroform/methanol by adding 0.4 mL of chloroform/methanol (1:1 v/v), vigorously mixing the samples, and separating the aqueous and organic phases by centrifugation. Radioactivity (corresponding to FAAH-catalyzed breakdown of ^3H-anandamide) found in aliquots (0.2 mL) of the aqueous phase was determined by liquid scintillation counting with quench correction. IC50 values were determined as described by Jonsson et al. (2001 Br. J. Pharmacol. 133:1263). Alternatively, reactions were purified using a modification of the solid-phase extraction method described by Wilson et al (2003 Anal. Biochem. 318:270). […]
A word on the IC50: it is the point on the concentration scale where inhibition reaches its midpoint. With `COc1cc(NC(=O)C(=O)c2c(C)n(Cc3ccc(Cl)cc3)c3sccc23)ccn1` [Compound I-09, 2-(6-(4-chlorobenzyl)-5-methyl-6H-thieno[2,3-b]pyrrol-4-yl)-N-(2-methoxypyridin-4-yl)-2-oxoacetamide], the IC50 amounted to 0.062 µM.

`Cc1c(C(=O)C(=O)Nc2cccc(Cl)c2)c2c(n1Cc1ccc(Cl)cc1)CCC(C)(C)C2` [Compound I-14, 2-(1-(4-chlorobenzyl)-2,5,5-trimethyl-4,5,6,7-tetrahydro-1H-indol-3-yl)-N-(3-chlorophenyl)-2-oxoacetamide]: the IC50 came out at 0.516 µM.

In the case of `COc1cc(NC(=O)C(=O)c2c3c(n(Cc4ccc(Cl)cc4)c2C)CCCC3)ccn1` [Compound I-18, 2-(1-(4-chlorobenzyl)-2-methyl-4,5,6,7-tetrahydro-1H-indol-3-yl)-N-(2-methoxypyridin-4-yl)-2-oxoacetamide], the 50% inhibitory concentration (IC50) is 0.009 µM.

For `COc1cc(NC(=O)C(=O)c2c3c(n(Cc4ccc(Cl)cc4)c2C)CCC(C)(C)C3)ccn1` [Compound I-15, 2-(1-(4-chlorobenzyl)-2,5,5-trimethyl-4,5,6,7-tetrahydro-1H-indol-3-yl)-N-(2-methoxypyridin-4-yl)-2-oxoacetamide], the IC50 came out at 0.007 µM.

Regarding `Cc1c(C(=O)C(=O)Nc2cccc(Cl)c2)c2ccsc2n1Cc1ccc(Cl)cc1` [Compound I-08, 2-(6-(4-chlorobenzyl)-5-methyl-6H-thieno[2,3-b]pyrrol-4-yl)-N-(3-chlorophenyl)-2-oxoacetamide], the IC50 was over 5 µM.

For `Cc1c(C(=O)C(=O)Nc2cccc(Cl)c2)c2c(n1Cc1ccc(Cl)cc1)CCCCC2` [Compound I-12, 2-(1-(4-chlorobenzyl)-2-methyl-1,4,5,6,7,8-hexahydrocyclohepta[b]pyrrol-3-yl)-N-(3-chlorophenyl)-2-oxoacetamide], the IC50 is 1.09 µM.

As to `COc1cc(NC(=O)C(=O)c2c3c(n(Cc4ccc(Cl)cc4)c2C)CCCCCC3)ccn1` [Compound I-11, 2-(1-(4-chlorobenzyl)-2-methyl-4,5,6,7,8,9-hexahydro-1H-cycloocta[b]pyrrol-3-yl)-N-(2-methoxypyridin-4-yl)-2-oxoacetamide], the half-inhibitory concentration (IC50) amounted to 0.192 µM.

For `COc1cc(NC(=O)C(=O)c2c3c(n(Cc4ccc(Cl)cc4)c2C)CCCCC3)ccn1` [Compound I-13, 2-(1-(4-chlorobenzyl)-2-methyl-1,4,5,6,7,8-hexahydrocyclohepta[b]pyrrol-3-yl)-N-(2-methoxypyridin-4-yl)-2-oxoacetamide], the IC50 worked out at 0.003 µM.

`Cc1c(C(=O)C(=O)Nc2cccc(Cl)c2)c2c(n1Cc1ccc(Cl)cc1)CCCCCC2` [Compound I-10, 2-(1-(4-chlorobenzyl)-2-methyl-4,5,6,7,8,9-hexahydro-1H-cycloocta[b]pyrrol-3-yl)-N-(3-chlorophenyl)-2-oxoacetamide]: the concentration for half-maximal inhibition (IC50) was over 5 µM.

Take `Cc1c(C(=O)C(=O)Nc2cccc(Cl)c2)c2c(n1Cc1ccc(Cl)cc1)CCCC2` [Compound I-16, 2-(1-(4-chlorobenzyl)-2-methyl-4,5,6,7-tetrahydro-1H-indol-3-yl)-N-(3-chlorophenyl)-2-oxoacetamide]: the IC50 was 2.08 µM.

The record behind these values is patent US20130109721A1, “FAAH Inhibitors” (Ironwood Pharmaceuticals, Inc., priority 2009, published 2013).
